In patent US9788539B2, “Platelet protection solution having beta-galactosidase and sialidase inhibitors” (Velico Medical, Inc., priority 2011, dated 2017):
Entries after “also recorded” stand apart in the source; their conditions may differ.

How the values were obtained:
mouse platelets [1] = assay: Sialidase-induced β-galactose exposure on platelets, lectin binding by flow cytometry; type: cell-based; details: mouse platelets, 5 mU α2-3,6,8,9-sialidase
mouse platelets [2] = assay: Sialidase (neuraminidase)-induced loss of platelet surface receptors, flow cytometry and immunoblot; type: cell-based; details: mouse platelets, flow cytometry and Western blot
mouse platelets [3] = assay: Surface receptor loss of mouse platelets stored at room temperature; type: cell-based; details: DANA added during storage
[4] = system: platelet GPIbα and GPV receptor surface expression; assay: Recombinant TACE-mediated GPIbα and GPV shedding from platelets; type: cell-based, mouse; details: GPIbα and GPV; GM6001 100 μM on sialidase-treated platelets
mouse platelets [5] = assay: Mouse platelets stored at RT for 48 h with different concentrations of DANA, counted by flow cytometry; type: cell-based; details: 0.1 mM DANA, 48 h at RT
Experimental: Mouse platelets were isolated as described in Example 3, re-suspended in platelet resuspension buffer and split to four aliquots. […] The samples were incubated for 30 min at 37° C., centrifuged and supernatants removed. The platelets re-suspended in plasma. DANA and glucose were restored to their initial concentrations. The platelet suspensions were stored at RT. After 48 h, platelets under each storage condition were counted by flow cytometry.

[6] = system: Serratia marcescens strain (ATCC #43862); assay: Planktonic growth of S. marcescens in 96-well PVC plate; type: cell-based; details: 1 mM DANA, 48 h, 30% plasma in PAS, 30% PC in PAS or 100% plasma
Experimental: Serratia marcescens strain (ATCC #43862) was purchased from American Type Culture Collection (Manassas, Va.). Cells were grown in brain-heart infusion broth (ATCC media 3) at 37° C. and 250 rpm. Frozen stocks were prepared from overnight culture and stored at −80° C. in brain-heart infusion broth containing 15% glycerol by volume. To prepare the seed culture, the cryostock of Serratia marcescens was inoculated into 3 mL of brain-heart infusion broth with a cotton swab and incubated at 37° C. with agitation at 250 rpm for 6 h. The cell density was determined at 600 nm on a dual wavelength spectrometer and diluted to 0.5 McFarland Standard (1.5×10^8 cells/mL) with sterile PBS. Ten μL of the diluted culture was inoculated into 140 μL of 30% plasma in PAS, 30% PC by volume in PAS or 100% plasma, supplemented with or without 1 mM DANA, in the wells of 96-well PVC plates (Corning Biosciences). For each media, six replicates were performed. Ten μL of PBS was inoculated into the control wells. The microtiter plates were then sealed with sterile porous film (VWR) and placed on a platform shaker. The cultures were incubated for 48 h with gentle shaking (˜100 rpm). […] The crystal violet retained by the biofilm was eluted with 200 μL of dimethyl sulfoxide (DMSO) or 30% acetic acid, and read at 595 nm.

[7] = system: Serratia marcescens strain (ATCC #43862); assay: Biofilm formation of S. marcescens, crystal violet; type: cell-based; details: 1 mM DANA, 48 h, crystal violet A595 nm
Experimental: To prepare the seed culture, the cryostock of Serratia marcescens was inoculated into 3 mL of brain-heart infusion broth with a cotton swab and incubated at 37° C. with agitation at 250 rpm for 6 h. The cell density was determined at 600 nm on a dual wavelength spectrometer and diluted to 0.5 McFarland Standard (1.5×10^8 cells/mL) with sterile PBS. Ten μL of the diluted culture was inoculated into 140 μL of 30% plasma in PAS, 30% PC by volume in PAS or 100% plasma, supplemented with or without 1 mM DANA, in the wells of 96-well PVC plates (Corning Biosciences). For each media, six replicates were performed. Ten μL of PBS was inoculated into the control wells. The microtiter plates were then sealed with sterile porous film (VWR) and placed on a platform shaker. The cultures were incubated for 48 h with gentle shaking (˜100 rpm). The cultures were gently mixed and transferred to a polystyrene plate for the determination of planktonic cell density at OD 595 nm. The wells on the original microtiter plates were washed with 3×200 μL of PBS, air dried, stained for 15 min with an aqueous solution of 0.1% (wt/vol) crystal violet, rinsed with water, and air dried for 1 hr. The crystal violet retained by the biofilm was eluted with 200 μL of dimethyl sulfoxide (DMSO) or 30% acetic acid, and read at 595 nm.

mouse platelets [8] = assay: Mouse platelets stored in 30% plasma and 70% INTERSOL solution at RT for 48 h, flow cytometry; type: cell-based
Experimental: The supernatant, containing platelet rich plasma, buffy coat, and some RBC, was removed and centrifuged at 300×g for 6 min to obtain platelet rich plasma (PRP). […] About 70% of the supernatant (105 μL) was removed from each tube, and replaced with equal volume of […]® solution. […] The volumes in tubes lacking one or both additives were evened out with PBS. The platelet suspensions were stored at RT for 48 h on a shaker and analyzed by flow cytometry.

human platelets [9] = assay: Human platelets stored in plasma at RT, size and density by FSC/SSC; type: cell-based; details: 72 h at RT in plasma
human platelets [10] = assay: Human platelets stored in plasma at RT, P-selectin surface expression (CD62P-FITC); type: cell-based; details: stored in plasma with DANA
human platelets [11] = assay: Human platelets stored in 30% plasma and 70% PASa at RT, flow cytometry and pH; type: cell-based; details: 7 days at RT
Experimental: Human platelets were obtained as described in Example 13. The platelet pellet was resuspended in PPP, ⅕ volumes of original PRP, and aliquoted into wells of a 96-well microtiter plate (60 μL per well). PAS (designated as PASa), containing 7.15 mM Na2HPO4, 2.24 mM NaH2PO4, 10 mM sodium citrate, 30 mM sodium acetate, 79.2 mM NaCl, 5.0 mM KCl, and 1.5 mM MgCl2, was added to corresponding wells at 140 μL per well, DANA was added to 0, 0.1, and 0.5 mM from 10 or 100 mM stock in PBS to proper wells. The sample volumes in the wells were evened out with PBS. The plate was then covered with a gas-permeable film and placed on a shaker. Platelet size and density were measured by forward (FSC) and side scatter (SSC) on a FACSCalibur flow cytometer (BD) at Day 7, and pH was checked at Day 9.

mouse platelets [12] = assay: In vivo survival of biotinylated platelets after injection of sialidase inhibitor; details: mice injected with 100 mM DANA vs PBS
Experimental: These studies then addressed whether inhibition of sialidase activity in vivo has an effect on platelet survival. […] Mice were injected with 100 mM DANA or PBS (phosphate buffered saline) as a control, after in vivo platelet biotinylation.

Question: For `CC(=O)NC1C(O)C=C(C(=O)O)OC1C(O)C(O)CO` (stereo not shown) [DANA], which “β-galactose exposure induced by sialidase in presence of inhibitor” value (mouse platelets [1]) is on record?
Answer: The value was “completely inhibited; also recorded: inhibits the exposure of β-galactose”.

Question: And the “loss (shedding) of platelet GPIbα and GPV induced by sialidase/neuraminidase, in presence of inhibitor” value (mouse platelets [2])?
Answer: The value was “completely prevented this loss; also recorded: prevented all GPIbα and GPV shedding; also recorded: inhibits the loss of platelet GPIbα”.

Question: What about the “GPIbα and GPV receptor expression of room temperature stored mouse platelets” value (mouse platelets [3]) of the same compound?
Answer: The value was “preserved receptors expression; also recorded: inhibited”.

Question: And the “receptor shedding by rTACE in presence of inhibitor” value [4]?
Answer: Its value is “completely prevented”.

Question: And the platelets recovered (mouse platelets [5]; 8 mM glucose, vs 0 mM DANA)?
Answer: The platelets recovered was “approximately 5 fold”.

Question: What about the “size and density of platelets by dot plot analysis” value (mouse platelets [5]) of the same compound?
Answer: Its value is “efficiently preserved the size and density of platelets”.

Question: What about the “bacterial growth (planktonic cell density)” value [6] of the same compound?
Answer: Its value is “inhibited the bacterial growth under all conditions”.

Question: And the formation of biofilm [7]?
Answer: The formation of biofilm was “negatively impacted”.

Question: What about the “platelet events within the platelet gate” value (mouse platelets [8]; 48 h at RT, DANA 1 mM and/or glucose 10 mM (57% in INTERSOL alone)) of the same compound?
Answer: The value was “over 80%”.

Question: And the “state of platelet population by forward and side scatter” value (mouse platelets [8]; compared with glucose alone)?
Answer: The value was “more resting platelet population”.

Question: And the “platelet shape by side and forward scatter” value (human platelets [9]; 0.5 mM DANA)?
Answer: Its value is “visible improvement of the platelet shape”.

Question: And the “mean fluorescence intensity (MFI) of platelet count/SSC histogram” value (human platelets [9]; with DANA vs without)?
Answer: The value was “increased”.

Question: And the “exposure of P-selectin” value (human platelets [10])?
Answer: The value was “significantly prevented the exposure of P-selectin”.

Question: What about the α-granule release (human platelets [10]) of the same compound?
Answer: The α-granule release was “inhibited α-granule release”.

Question: What about the “platelet microparticles (G2)” value (human platelets [11]; 0.1 mM DANA (41.5% without)) of the same compound?
Answer: Its value is 23.95%.

Question: What about the “total acquired events gated as platelets (G1)” value (human platelets [11]; 0.1 mM DANA (55% without)) of the same compound?
Answer: Its value is “over 70%”.

Question: And the “platelet microparticles (G2)” value (human platelets [11]; 0.5 mM DANA)?
Answer: The value was 13.52%.

Question: And the “total acquired events gated as platelets (G1)” value (human platelets [11]; 0.5 mM DANA)?
Answer: Its value is 81.6%.

Question: And the “survival of biotinylated platelets in vivo” value (mouse platelets [12])?
Answer: The value was “increases mouse platelet life span in vivo; also recorded: increases the survival”.
